The procedure of data set [1]:
(§1) The container bottoms were then attached to the bottom of a small jewelry ultrasonic cleaner bath using a water-resistant double-stick tape. Just enough water was added to the bath to immerse the weigh boats to about ⅓rd height. Sonication was performed for 15 minutes in steps of 5 minutes. The liquids were transferred to centrifuge tubes and centrifuged twice for 30 min. in a bench top centrifuge to pellet out undissolved dye. The supernatants were transferred to clean tubes and centrifuged again, to remove entrained solids. Suspensions of same amounts of dyes in same amount of distilled water as the amount of the polymer solution were treated in the same fashion, as controls. The resulting solutions were spotted (25 ul) on TLC plates to form circles from the drops. The intensities of the spots were compared with spots made from standards of dye solutions made in ethanol or ethanol/water to determine approximate concentrations; the spots are shown in FIG. 1. The solubilities of the dyes in water were determined by dissolving appropriate amount of the dye in […] deionized water (unbuffered) at room temperature, and adding (i.e. titrating with) further water as necessary to obtain saturated solutions.

The nature of a further data set: physchem. The procedure:
as §1

The values below come from patent US8173764B2, “Solubilization and targeted delivery of drugs with self-assembling amphiphilic polymers” (AllExcel Inc., priority 2006, dated 2012).

Each structure is given as a SMILES string. ≈ marks a conversion by molar mass, not a printed value. Where two headings read alike, the source gives them in different places.

As for `O=C1OC2(c3cc(Cl)c(O)cc3Oc3cc(O)c(Cl)cc32)c2ccccc21` [Dichlorofluorescein, dichlorofluorescein], the “concentration of dye in 50 mg/ml polymer” value in data set [1] (15 min) is listed as “approximately 5 mg/ml”. In “physchem” (water, thermodynamic from solid), this compound showed a solubility of 10 µg/mL (≈ 24.9 µM).

In the case of `Cc1ccccc1/N=N/c1ccc(/N=N/c2c(O)ccc3ccccc23)c(C)c1` [Sudan IV], in data set [1], the “concentration of dye in 50 mg/ml polymer” value was “approximately 0.2 mg/ml”. Also, the “concentration (solubility) of dye in H2O” value in the data set “physchem” was 0 µg/mL.
